The values below come from PubChem BioAssay AID1259411 (Chemical Carcinogenesis Research Information System (CCRIS), 2018).

In this series the test system is rodent carcinogenicity bioassays, tumor incidence. Nature of the series: CCRIS carcinogenicity studies. The note with it: Dose: 0, Dose: 0. Put shortly: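 Archive of carcinogenicity, mutagenicity, tumor promotion and tumor inhibition results drawn from journals, NCI reports and other sources, expert-reviewed; covers 1985-2011 and is no longer updated.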

Molecules are shown by their SMILES. Calls of active or inactive are those of the source. No rule for the calls is given here.

On to `O[C@H]1C=Cc2c(ccc3ncccc23)[C@@H]1O`, for which the carcinogen call (Species: MOUSE, Strain/Sex: CD-1/FEMALE, Route: INTRAPERITONEAL, 5, 10 AND 20 µL OF A 0.05 MOLAR SOLUTION ON DAYS 1, 8 AND 15 OF LIFE RESPECTIVELY (TOTAL DOSE: 1.75 UMOL) (STUDY DURA, 5, 10 AND 20 µL OF A 0.05 MOLAR SOLUTION ON DAYS 1, 8 AND 15 OF LIFE RESPECTIVELY (TOTAL DOSE: 1.75 UMOL) (STUDY DURA) was “inactive; negative” and the carcinogen call (Species: MOUSE, Strain/Sex: CD-1/MALE, Route: INTRAPERITONEAL, 5, 10 AND 20 µL OF A 0.05 MOLAR SOLUTION ON DAYS 1, 8 AND 15 OF LIFE RESPECTIVELY (TOTAL DOSE: 1.75 UMOL) (STUDY DURA, 5, 10 AND 20 µL OF A 0.05 MOLAR SOLUTION ON DAYS 1, 8 AND 15 OF LIFE RESPECTIVELY (TOTAL DOSE: 1.75 UMOL) (STUDY DURA) was “inactive; negative”.
Consider `O=[N+]([O-])c1cc(N(CCO)CCO)ccc1NCCO`, for which the carcinogen call reads like this: (Species: MOUSE, Strain/Sex: B6C3F1/FEMALE, Route: ORAL, 10000, 20000 PPM IN DIET FOR 104 WK, 10000, 20000 PPM IN DIET FOR 104 WK) “inactive; negative”; (Species: MOUSE, Strain/Sex: B6C3F1/MALE, Route: ORAL, 5000, 10000 PPM IN DIET FOR 104 WK, 5000, 10000 PPM IN DIET FOR 104 WK) “inactive; negative”; (Species: RAT, Strain/Sex: F344/FEMALE, Route: ORAL, 10000, 20000 PPM IN DIET FOR 103 WK, 10000, 20000 PPM IN DIET FOR 103 WK) “inactive; negative”; (Species: RAT, Strain/Sex: F344/MALE, Route: ORAL, 5000, 10000 PPM IN DIET FOR 103 WK, 5000, 10000 PPM IN DIET FOR 103 WK) “inactive; negative”.
As for `CCCCC(=O)O[C@H]1CC[C@H]2[C@@H]3CCc4cc(O)ccc4[C@H]3CC[C@]12C`, the carcinogen call (Species: RAT, Strain/Sex: STRAIN-CD/MALE, Route: SUBCUTANEOUS, 1 MG IN CASTOR OIL 1/4 WK FOR LIFE (STUDY DURATION: LIFE), Tumor Site: Type of Lesion: MAMMARY GLAND: TUMOR) was “active; positive”.
For the compound `CCCCCCCCCc1ccc(OCCO)cc1`, the carcinogen call reads like this: (Species: MOUSE, Strain/Sex: B6C3F1/FEMALE, Route: ORAL, 500, 1500, 4500 PPM IN DIET FOR 104 WK (STUDY DURATION: 104 WK), 500, 1500, 4500 PPM IN DIET FOR 104 WK (STUDY DURATION: 104 WK)) “inactive; negative”; (Species: RAT, Strain/Sex: F344/FEMALE, Route: ORAL, 1000, 3000, 9000 PPM IN DIET FOR 104 WK (STUDY DURATION: 104 WK), 1000, 3000, 9000 PPM IN DIET FOR 104 WK (STUDY DURATION: 104 WK)) “inactive; negative”.
For `O=C(c1ccccc1)c1ccccc1`, the carcinogen call reads like this: (Species: Mouse, Strain/Sex: B6C3F1/Female, Route: Oral, 312, 625, 1250 ppm in feed for 105 wks, 312, 625, 1250 ppm in feed for 105 wks, Tumor Site: Type of Lesion: Histiocytic sarcoma: (0/50, 0/50, 5/50, 3/50) Liver: Hepatocellular adenoma (5/50, 4/50, 10/50, 8/50)) “active; positive (ntp describes as some evidence); ntp describes results in liver as equ”; (Species: Mouse, Strain/Sex: B6C3F1/Male, Route: Oral, 312, 625, 1250 ppm in feed for 105 wks, 312, 625, 1250 ppm in feed for 105 wks, Tumor Site: Type of Lesion: Liver: Hepatocellular adenoma (11/50, 15/50, 23/50, 23/50), Hepatocellular adenoma, hepatocellular carcinoma, or hepatob) “active; positive (ntp describes as some evidence)”; (Species: Rat, Strain/Sex: F344/N/Female, Route: Oral, 312, 625, 1250 ppm in feed for 105 wks, 312, 625, 1250 ppm in feed for 105 wks, Tumor Site: Type of Lesion: Mononuclear cell leukemia: (19/50, 25/50, 30/50, 29/50) Histiocytic sarcoma: (0/50, 0/50, 1/50, 2/50) Mammary gland: fib) “equivocal; mononuclear cell leukemia and histiocytic sarcoma incidences describe”; (Species: Rat, Strain/Sex: F344/N/Male, Route: Oral, 312, 625, 1250 ppm in feed for 105 wks, 312, 625, 1250 ppm in feed for 105 wks, Tumor Site: Type of Lesion: Kidney: Renal tubule adenoma (1/50, 1/10, 2/50, 4/50), Mononuclear cell leukemia: (27/50, 41/50, 39/50, 24/50)) “active; positive trend for renal tubule adenoma (ntp describes as some evidence); mononu”.
As to `Nc1ccc(Cl)cc1`, the carcinogen call (Species: MOUSE, Strain/Sex: B6C3F1/F, Route: GAVAGE, 3, 10, 30 MG/KG IN ACIDIFIED WATER 5D/WK FOR 103 WK (STUDY DURATION: 104 WK, 3, 10, 30 MG/KG IN ACIDIFIED WATER 5D/WK FOR 103 WK (STUDY DURATION: 104 WK) is “inactive; negative”; the carcinogen call (Species: MOUSE, Strain/Sex: B6C3F1/FEMALE, Route: ORAL, 2500, 5000 PPM IN DIET FOR 78 WK (STUDY DURATION: 91 WK), 2500, 5000 PPM IN DIET FOR 78 WK (STUDY DURATION: 91 WK), Tumor Site: Type of Lesion: SPLEEN: HEMANGIOMA AND HEMANGIOSARCOMA, LIVER: HEMANGIOSARCOMA, MULTIPLE ORGANS: HEMANGIOSARCOMA, Tumor Site: Type of Lesion: SPLEEN: HEMANGIOMA AND HEMANGIOSARCOMA, LIVER: HEMANGIOSARCOMA, MULTIPLE ORGANS: HEMANGIOSARCOMA) is recorded as “equivocal”; the carcinogen call (Species: MOUSE, Strain/Sex: B6C3F1/MALE, Route: GAVAGE, 3, 10, 30 MG/KG IN ACIDIFIED WATER 5D/WK FOR 103 WK (STUDY DURATION: 104 WK), 3, 10, 30 MG/KG IN ACIDIFIED WATER 5D/WK FOR 103 WK (STUDY DURATION: 104 WK), Tumor Site: Type of Lesion: LIVER: HEPATOCELLULAR CARCINOMA, LIVER: HEPATOCELLULAR ADENOMA OR CARCINOMA, CIRCULATORY SYSTEM: HEMANGIOSARCOMA, Tumor Site: Type of Lesion: LIVER: HEPATOCELLULAR CARCINOMA, LIVER: HEPATOCELLULAR ADENOMA OR CARCINOMA, CIRCULATORY SYSTEM: HEMANGIOSARCOMA) was “active; positive”; the carcinogen call (Species: MOUSE, Strain/Sex: B6C3F1/MALE, Route: ORAL, 2500, 5000 PPM IN DIET FOR 78 WK (STUDY DURATION: 91 WK), 2500, 5000 PPM IN DIET FOR 78 WK (STUDY DURATION: 91 WK), Tumor Site: Type of Lesion: SPLEEN: HEMANGIOSARCOMA, LIVER: HEMANGIOMA AND HEMANGIOSARCOMA, KIDNEY: HEMANGIOSARCOMA, MULTIPLE ORGANS: HEMANGIOSARCOM, Tumor Site: Type of Lesion: SPLEEN: HEMANGIOSARCOMA, LIVER: HEMANGIOMA AND HEMANGIOSARCOMA, KIDNEY: HEMANGIOSARCOMA, MULTIPLE ORGANS: HEMANGIOSARCOM) is on record as “equivocal”; the carcinogen call (Species: RAT, Strain/Sex: F344/FEMALE, Route: GAVAGE, 2, 6, 18 MG/KG IN ACIDIFIED WATER 5D/WK FOR 103 WK (STUDY DURATION: 104 WK), 2, 6, 18 MG/KG IN ACIDIFIED WATER 5D/WK FOR 103 WK (STUDY DURATION: 104 WK), Tumor Site: Type of Lesion: SPLEEN: SARCOMA, ADRENAL GLAND: PHEOCHROMOCYTOMA) is given as “equivocal”; the carcinogen call (Species: RAT, Strain/Sex: F344/FEMALE, Route: ORAL, 250, 500 PPM IN DIET FOR 78 WK (STUDY DURATION: 102 WK), 250, 500 PPM IN DIET FOR 78 WK (STUDY DURATION: 102 WK)) is “inactive; negative”. Further, the carcinogen call is “active; positive” (Species: RAT, Strain/Sex: F344/MALE, Route: GAVAGE, 2, 6, 18 MG/KG IN ACIDIFIED WATER 5D/WK FOR 103 WK (STUDY DURATION: 104 WK), 2, 6, 18 MG/KG IN ACIDIFIED WATER 5D/WK FOR 103 WK (STUDY DURATION: 104 WK), Tumor Site: Type of Lesion: ADRENAL MEDULLA: PHEOCHROMOCYTOMA, ADRENAL MEDULLA: PHEOCHROMOCYTOMA OR MALIGNANT PHEOCHROMOCYTOMA, SPLEEN: FIBROSARCOMA, Tumor Site: Type of Lesion: ADRENAL MEDULLA: PHEOCHROMOCYTOMA, ADRENAL MEDULLA: PHEOCHROMOCYTOMA OR MALIGNANT PHEOCHROMOCYTOMA, SPLEEN: FIBROSARCOMA); “active; positive” (Species: RAT, Strain/Sex: F344/MALE, Route: ORAL, 250, 500 PPM IN DIET FOR 78 WK (STUDY DURATION: 102 WK), 250, 500 PPM IN DIET FOR 78 WK (STUDY DURATION: 102 WK), Tumor Site: Type of Lesion: SPLEEN OR PERITONEUM: SARCOMA); “equivocal” (Species: RAT, Strain/Sex: F344/MALE, Route: ORAL, 250, 500 PPM IN DIET FOR 78 WK (STUDY DURATION: 102 WK), 250, 500 PPM IN DIET FOR 78 WK (STUDY DURATION: 102 WK), Tumor Site: Type of Lesion: SPLEEN: FIBROMA AND SARCOMA).
As for `O=Cc1ccc(CCl)o1`, under “Species: MOUSE, Strain/Sex: B6C3F1/MALE, Route: INTRAPERITONEAL, 0.1, 0.25 UMOL/G IN 5 µL DMSO/G BW ONCE (STUDY DURATION: 10 MO), 0.1, 0.25 UMOL/G IN 5 µL DMSO/G BW ONCE (STUDY DURATION: 10 MO), Tumor Site: Type of Lesion: LIVER: TUMOR”, the carcinogen call was “active; positive”.
